Assay results taken from PMC11855827, “High-Throughput Screening of Five Compound Libraries for Anthelmintic Activity and Toxicity Leads to the Discovery of Two Flavonoid Compounds” (International Journal of Molecular Sciences, 2025).
Several values for one entry are separate records, joined by “and”; a condition that tells them apart may be missing. Equal values may be shown once. Read-outs that look alike come from different tables or passages of the source.

Tested on: C. elegans
[1] = Table S2, C. elegans SS assay, 110 μM, 0 h, averages of 4 data points
[2] = Table S2, C. elegans SS assay, 110 μM, 24 h, averages of 4 data points

Molecule | Percentage of motility inhibition 0 h [1] | Percentage of motility inhibition 24 h [2] | further results
CC1(COC(=O)c2ccccc2)CCC2(C)CCC3(C)C4=CCC5C(C)(CCC(OC(=O)c6ccccc6)C5(C)C)C4=CCC3(C)C2C1 (stereo not drawn) [3,29-O-Dibenzoyloxykarounidiol] | 15% | 9% | –
Enfuvirtide | – | – | Percentage of motility inhibition 0 h (0 h, 110 μM): 36%; Percentage of motility inhibition 24 h (24 h, 110 µM): 30%
COC(=O)C1=CCCNC1.Cl [Guvacoline (hydrochloride)] | 0% | 0% | –
C[C@@H]1O[C@@H](O[C@H]2[C@H](O[C@H]3CC[C@@]4(C)[C@@H](CC[C@]5(C)[C@@H]4CC=C4[C@@H]6CC(C)(C)CC[C@]6(C(=O)O)CC[C@]45C)[C@]3(C)CO)OC[C@H](O[C@@H]3O[C@H](CO)[C@@H](O)[C@H](O)[C@H]3O)[C@@H]2O)[C@H](O)[C@H](O)[C@H]1O [Pulsatilla saponin D] | 0% | 0% | –
CCC1=N[C@H]2C[C@@]3(C(=O)N(OC)c4ccccc43)[C@H]3CC1[C@@H]2CO3 [Humantenmine] | 8% | 12% | –
C[C@@H]1O[C@@H](O[C@@H]2[C@H](O)[C@@H](O)[C@H](O[C@H]3CC[C@@]4(C)C(CC[C@]5(C)C4C=C[C@]46OC[C@@]7(CCC(C)(C)CC74)[C@@H](O)C[C@]65C)C3(C)C)O[C@@H]2CO[C@@H]2O[C@H](CO)[C@@H](O)[C@H](O)[C@H]2O)[C@H](O)[C@H](O)[C@H]1O (stereo partly drawn) [Saikosaponin C] | 24% | 0% | –
C[N+](C)(C)CCO.O=C([O-])C(O)C(O)C(=O)O (stereo not drawn) [Choline (bitartrate)] | 0% | 0% | –
O=c1c(-c2ccc(O)cc2)coc2cc(O[C@@H]3O[C@H](CO)[C@@H](O)[C@H](O)[C@H]3O)ccc12 [Daidzin] | 47% and 26% | – | –
CCCCC/C=C\C/C=C\CCCCCCCC(=O)NCc1ccccc1 [N‐Benzyllinoleamide] | 0% | 0% | –
CC(=O)[C@H]1CC[C@H]2[C@@H]3CC=C4C[C@@H](O)CC[C@]4(C)[C@H]3CC[C@]12C [Pregnenolone] | 11% | 4% | –
CC(=O)O[C@@]12CO[C@@H]1C[C@@H](O)[C@@]1(C)C(=O)[C@H](O)C3=C(C)[C@@H](OC(=O)[C@H](O)[C@@H](NC(=O)c4ccccc4)c4ccccc4)C[C@@](O)([C@@H](OC(=O)c4ccccc4)[C@H]21)C3(C)C [7-Epi 10-desacetyl paclitaxel] | 0% | 26% | –
CN[C@@H]1[C@H](O)[C@H](NC)[C@H]2O[C@@]3(O)C(=O)C[C@@H](C)O[C@H]3O[C@@H]2[C@H]1O.Cl.Cl.O.O.O.O.O | 16% | 2% | –
CC(/C=C/C=C(\C)C(=O)O)=C\C=C\C=C(C)\C=C\C=C(/C)C(=O)O.CNC[C@H](O)[C@@H](O)[C@H](O)[C@H](O)CO.CNC[C@H](O)[C@@H](O)[C@H](O)[C@H](O)CO [Crocetin (meglumine)] | 6% | 10% | –
Nc1ncnc2c1ncn2[C@@H]1O[C@H](COP(=O)(O)O)[C@@H](O)[C@H]1O.O [Adenosine 5'-monophosphate (monohydrate)] | 20% | 2% | –
C[C@]1(O[C@H]2O[C@H](CO)[C@H](O)[C@H](O)[C@H]2O)C[C@@H](O)[C@@H]2C=CO[C@@H](O[C@@H]3O[C@H](CO)[C@@H](O)[C@H](O)[C@H]3O)[C@@H]21 [Rehmannioside C] | 0% | 8% | –
Trigonelline (chloride) | – | – | Percentage of motility inhibition 0 h (110 µM): 2%; Percentage of motility inhibition 24 h (110 µM): 17%
C[C@@]12C=Cc3occc3[C@H]1CC[C@@]13C[C@@H](CC[C@H]12)[C@@](O)(CO)C3 [Kahweol] | 11% | 19% | –
